In publication PMC10352132 (Nature Structural & Molecular Biology, 2023):
Values joined by “and” are separate entries in the source; they are usually repeats but may differ in a detail not shown here. Equal entries are not always repeated. Where two headings read alike, the source gives them in different places.

Tests used:
rGAT1WT [1] = biological target: T1, rGAT1WT (Rattus norvegicus, UniProt P23978); assay: MS binding assay (LC-ESI-MS/MS saturation) with rGAT1WT expressing membranes; conditions: for total binding / non-specific binding: rGAT1WT; for total binding: triplicate; for non-specific binding: in the presence of 100 mM GABA
Method: (§1) The cell suspension was sonicated, the lysate was centrifuged at 21,000×g to separate the cell debris and 1 ml of the supernatant was aliquoted into each of forty 1.5 ml microfuge tubes. The membrane suspension was spun at 49,000×g for 90 min in a TLA100.1 rotor (Beckman) followed by flash-freezing and storage at −80 °C.
(§2) Binding experiments were performed as described unless stated otherwise. Aliquots of rGAT1 or hGAT1[53] membrane preparations were defrosted, diluted in 20 ml 50 mM Tris-citrate buffer containing 1 M NaCl, pH 7.1 (assay buffer) and centrifuged (50,000×g, 4 °C, 20 min). After resuspension of the pellet in assay buffer, saturation experiments with NO711 were performed in triplicate samples (about 10 µg protein) in a total assay volume of 250 µl. […] Incubation was performed for 40 min at 37 °C; subsequently, 200 µl aliquots of the binding samples were transferred onto 96-well filter plates and filtrated under vacuum, followed by rapid washing of the filters with ice-cold 0.9% NaCl (3 × 150 µl). The filter plates were then dried (60 min, 50 °C) and eluted with 3 × 100 µl methanol (containing 1.43 nM D10-NO711). […] Analysis of the binding data was performed with GraphPad Prism (version 6.0.7). The results are based on at least three independent saturation experiments for each GAT1 species.

rGAT1WT [2] = biological target: T1, rGAT1WT; assay: Inhibition of 3H-GABA uptake through rGAT1WT; type: cell-based; conditions: rGAT1WT; for 3[H]GABA uptake (% of uninhibited sample): replicates T1-T6
Method: (§3) […]. After 15 min, the uptake was arrested with 100 µl of ice-cold assay buffer and washed two times with the same buffer. The cells were solubilized for 1 h in 100 µl of 20 mM DDM and 2 mM CHS, and 50 µl of scintillant was added to the solubilized material. Counts were measured using a MicroBeta scintillation counter. Uninfected cells were used as a control. The background-subtracted dose–response curves were plotted as log [inhibitor] versus response using GraphPad Prism (version 5.0.1) and IC50 values were determined. The Ki values were calculated using Cheng-Prusoff’s equation. […] The data were analyzed using GraphPad Prism (version 5.0.1).

rGAT1EM [3] = biological target: T2, rGAT1EM (Rattus norvegicus, UniProt P23978, D482E/E486D/F312Y/N483D/Q485R/R491P/S490F/V488I/Y481S); assay: Inhibition of 3H-GABA uptake through rGAT1EM; type: cell-based; conditions: rGAT1EM; for 3[H]GABA uptake (% of uninhibited sample): replicates T1-T6
T2 sequence (P23978 with tags, fused parts or gaps F312Y/Y481S/D482E/N483D/Q485R/E486D/V488I/S490F/R491P): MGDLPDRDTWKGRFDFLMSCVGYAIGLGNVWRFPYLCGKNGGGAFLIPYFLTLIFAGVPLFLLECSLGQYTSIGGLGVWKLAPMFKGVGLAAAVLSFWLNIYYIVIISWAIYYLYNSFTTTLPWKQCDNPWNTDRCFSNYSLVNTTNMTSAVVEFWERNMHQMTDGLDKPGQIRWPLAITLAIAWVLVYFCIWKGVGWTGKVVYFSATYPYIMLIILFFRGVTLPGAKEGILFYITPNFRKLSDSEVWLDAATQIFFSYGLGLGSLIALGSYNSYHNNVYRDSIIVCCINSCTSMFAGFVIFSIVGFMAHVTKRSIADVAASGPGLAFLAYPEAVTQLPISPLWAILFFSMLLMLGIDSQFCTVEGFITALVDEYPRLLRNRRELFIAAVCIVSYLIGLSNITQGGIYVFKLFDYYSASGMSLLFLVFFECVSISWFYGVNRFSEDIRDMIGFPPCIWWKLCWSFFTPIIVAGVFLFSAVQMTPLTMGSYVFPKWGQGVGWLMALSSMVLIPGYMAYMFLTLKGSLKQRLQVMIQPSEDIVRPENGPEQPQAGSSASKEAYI
Method: as §3

rGAT1EM [4] = biological target: T2, rGAT1EM; assay: MS binding assay (LC-ESI-MS/MS saturation) with rGAT1EM expressing membranes; conditions: for total binding / non-specific binding: rGAT1EM; for total binding: triplicate; for non-specific binding: in the presence of 100 mM GABA
Method: as §1, §2

[5] = calculated using Cheng-Prusoff's equation

O=C(O)C1=CCCN(CCON=C(c2ccccc2)c2ccccc2)C1 [NO711]
BMAX (MS binding assay) (rGAT1WT [1]; rGAT1WT membranes): 166.4 ± 44.6 pmol/mg protein | Kd (rGAT1WT [1]; rGAT1WT membranes): 50 nM and 50.6 nM | total binding (rGAT1WT [1]; c NO711 2.5 nM): 0.0851 nM and 0.0839 nM and 0.0992 nM | total binding (rGAT1WT [1]; c NO711 5 nM): 0.236 nM and 0.225 nM and 0.219 nM | total binding (rGAT1WT [1]; c NO711 10 nM): 0.387 nM and 0.361 nM | total binding (rGAT1WT [1]; c NO711 20 nM): 0.566 nM and 0.612 nM and 0.546 nM | non-specific binding (rGAT1WT [1]; c NO711 40 nM): 0.0154 nM and 0.0179 nM and 0.0127 nM | total binding (rGAT1WT [1]; c NO711 40 nM): 0.967 nM and 0.954 nM and 0.928 nM | non-specific binding (rGAT1WT [1]; c NO711 80 nM): 0.0317 nM and 0.0305 nM and 0.029 nM | total binding (rGAT1WT [1]; c NO711 80 nM): 1.15 nM and 1.08 nM and 1.2 nM | non-specific binding (rGAT1WT [1]; c NO711 160 nM): 0.0708 nM and 0.0715 nM and 0.07 nM | total binding (rGAT1WT [1]; c NO711 160 nM): 1.46 nM and 1.6 nM | non-specific binding (rGAT1WT [1]; c NO711 320 nM): 0.131 nM and 0.157 nM and 0.18 nM | total binding (rGAT1WT [1]; c NO711 320 nM): 1.95 nM and 1.86 nM and 1.76 nM | non-specific binding (rGAT1WT [1]; c NO711 640 nM): 0.27 nM and 0.291 nM and 0.276 nM | total binding (rGAT1WT [1]; c NO711 640 nM): 2.12 nM and 2.1 nM and 2.38 nM | non-specific binding (rGAT1WT [1]; c NO711 1280 nM): 0.65 nM and 0.595 nM and 0.624 nM | total binding (rGAT1WT [1]; c NO711 1280 nM): 2.77 nM and 2.69 nM and 2.73 nM | IC50 (rGAT1WT [2]): 563 nM | Ki (rGAT1WT [2]; [5]): 325 ± 35 nM | 3[H]GABA uptake (% of uninhibited sample) (rGAT1WT [2]; inhibitor 1 nM, 0.001 µM): 91.7343% and 91.298% and 89.6982% and 104.496% and 107.442% and 95.8793% | 3[H]GABA uptake (% of uninhibited sample) (rGAT1WT [2]; inhibitor 10 nM, 0.01 µM): 89.0619% and 103.351% and 105.969% and 101.46% and 106.551% and 93.6068% | 3[H]GABA uptake (% of uninhibited sample) (rGAT1WT [2]; inhibitor 30 nM, 0.03 µM): 83.2626% and 81.7356% and 90.8981% and 90.6072% and 95.952% and 94.6794% | 3[H]GABA uptake (% of uninhibited sample) (rGAT1WT [2]; inhibitor 100 nM, 0.1 µM): 91.189% and 83.9535% and 82.5718% and 49.5576% and 81.2629% and 73.9547% | 3[H]GABA uptake (% of uninhibited sample) (rGAT1WT [2]; inhibitor 500 nM, 0.5 µM): 55.0115% and 49.6303% and 48.5396% and 53.3026% and 54.4298% and 46.4671% | 3[H]GABA uptake (% of uninhibited sample) (rGAT1WT [2]; inhibitor 1000 nM, 1 µM): 39.1225% and 40.286% and 41.9222% and 36.8319% and 37.6318% and 37.6682% | 3[H]GABA uptake (% of uninhibited sample) (rGAT1WT [2]; inhibitor 3000 nM, 3 µM): 18.3614% and 14.2165% and 17.0888% and 16.5071% | Ki (rGAT1EM [3]; [5]): 53 ± 4 nM | 3[H]GABA uptake (% of uninhibited sample) (rGAT1EM [3]; inhibitor 1 nM, 0.001 µM): 100.216% and 103.239% and 95.1781% and 97.6251% and 105.398% and 98.3447% | 3[H]GABA uptake (% of uninhibited sample) (rGAT1EM [3]; inhibitor 10 nM, 0.01 µM): 90.824% and 80.7485% and 91.6877% and 97.5891% and 93.055% and 87.4415% | 3[H]GABA uptake (% of uninhibited sample) (rGAT1EM [3]; inhibitor 30 nM, 0.03 µM): 85.8582% and 72.9759% and 75.9266% and 79.8129% and 79.2371% and 88.8089% | 3[H]GABA uptake (% of uninhibited sample) (rGAT1EM [3]; inhibitor 100 nM, 0.1 µM): 55.6315% and 53.1846% and 49.5862% and 54.3361% and 66.2109% and 52.321% | 3[H]GABA uptake (% of uninhibited sample) (rGAT1EM [3]; inhibitor 500 nM, 0.5 µM): 29.8309% and 34.7967% and 26.0165% and 31.1983% and 34.4368% and 36.2361% | 3[H]GABA uptake (% of uninhibited sample) (rGAT1EM [3]; inhibitor 1000 nM, 1 µM): 17.0205% and 18.9637% and 19.4674% and 16.1569% and 19.1796% and 13.2062% | 3[H]GABA uptake (% of uninhibited sample) (rGAT1EM [3]; inhibitor 3000 nM, 3 µM): 9.608% and 6.153% and 8.168% and 9.104% (2×) and 11.1191% | 3[H]GABA uptake (% of uninhibited sample) (rGAT1EM [3]; inhibitor 10000 nM, 10 µM): 5.11% and 2.879% and 4.39% and 4.246% and 2.375% and 5.038% | 3[H]GABA uptake (% of uninhibited sample) (rGAT1EM [3]; inhibitor 50000 nM, 50 µM): 1.763% and 1.439% and 0.8276% and 1.799% and 0.8996% and 1.3674% | 3[H]GABA uptake (% of uninhibited sample) (rGAT1EM [3]; inhibitor 100000 nM, 100 µM): 0.5757% and 0.6477% and 0.7197% and 0.5038% (2×) and 0.3598% | IC50 (rGAT1EM [3]; read-out: IC50 of inhibition of 3H-GABA uptake): 155 nM | IC50 (rGAT1EM [3]; read-out: inhibition potencies (K0.5)): 155 nM | BMAX (MS binding assay) (rGAT1EM [4]; rGAT1EM membranes): 212.4 ± 30.3 pmol/mg protein | Kd (rGAT1EM [4]; rGAT1EM membranes): 80 nM and 80.7 nM | total binding (rGAT1EM [4]; c NO711 2.5 nM): 0.0853 nM and 0.0717 nM and 0.0765 nM | total binding (rGAT1EM [4]; c NO711 5 nM): 0.175 nM and 0.157 nM and 0.182 nM | total binding (rGAT1EM [4]; c NO711 10 nM): 0.266 nM and 0.298 nM and 0.282 nM | total binding (rGAT1EM [4]; c NO711 20 nM): 0.414 nM and 0.405 nM and 0.393 nM | non-specific binding (rGAT1EM [4]; c NO711 40 nM): 0.0146 nM and 0.0116 nM and 0.0148 nM | total binding (rGAT1EM [4]; c NO711 40 nM): 0.654 nM and 0.656 nM and 0.82 nM | non-specific binding (rGAT1EM [4]; c NO711 80 nM): 0.0357 nM and 0.0322 nM and 0.0377 nM | total binding (rGAT1EM [4]; c NO711 80 nM): 0.825 nM and 0.877 nM and 0.867 nM | non-specific binding (rGAT1EM [4]; c NO711 160 nM): 0.0681 nM and 0.0747 nM and 0.0767 nM | total binding (rGAT1EM [4]; c NO711 160 nM): 1.22 nM and 1.29 nM and 1.33 nM | non-specific binding (rGAT1EM [4]; c NO711 320 nM): 0.131 nM and 0.148 nM and 0.145 nM | total binding (rGAT1EM [4]; c NO711 320 nM): 1.55 nM and 1.39 nM and 1.57 nM | non-specific binding (rGAT1EM [4]; c NO711 640 nM): 0.281 nM and 0.277 nM and 0.282 nM | total binding (rGAT1EM [4]; c NO711 640 nM): 1.85 nM and 2.19 nM and 2.02 nM | non-specific binding (rGAT1EM [4]; c NO711 1280 nM): 0.608 nM and 0.571 nM and 0.589 nM | total binding (rGAT1EM [4]; c NO711 1280 nM): 2.47 nM and 2.46 nM
